According to patent US20180037568A1, “MODULATORS OF METHYL MODIFYING ENZYMES, COMPOSITIONS AND USES THEREOF” (Constellation Pharmaceuticals, Inc., priority 2015, published 2018):
Where two headings read alike, the source gives them in different places.

Legend:
EZH2 = EZH2 (Homo sapiens, UniProt Q15910); test: EZH2 nuc BSA Brij 1.5 (IC50): rPRC2, biotinylated oligonucleosome substrate, 3H SAM FlashPlate; format: biochemical; settings: 2 nM EZH2, 0.2 μM biotinylated oligonucleosomes, 0.2 μM 3H SAM, 3.6 μM H3K27me3 peptide
Description: EZH2 Nuc BSA Brij 1.5 (IC50):
Assays were carried out by mixing rPRC2 together with biotinylated oligonucleosome substrates in the presence of the radio-labeled enzyme co-factor, S-adenosyl-L-methionine (^3H SAM) (Perkin Elmer) and monitoring the enzymatically mediated transfer of tritiated methyl groups from ^3H SAM to histone lysine residues. The amount of resulting tritiated methyl histone product was measured by first capturing the biotinylated oligonucleosomes in streptavidin (SAV) coated FlashPlates (Perkin Elmer), followed by a wash step to remove un-reacted ^3H SAM, and then counting on a TopCount NXT 384 well plate scintillation counter (Perkin Elmer). The final assay conditions for EZH2 were as follows: 50 mM Tris Buffer pH 8.5, 1 mM DTT, 69 μM Brij-35 detergent, 5.0 mM MgCl2, 0.1 mg/mL BSA, 0.2 μM ^3H SAM, 0.2 μM biotinylated oligonucleosomes, 3.6 μM H3K27me3 peptide and 2 nM EZH2.
Compound IC50 Measurements were Obtained as Follows:
Compounds were first dissolved in 100% DMSO as 10 mM stock solutions. Ten point dose response curves were generated by dispensing varying amounts of the 10 mM compound solution in 10 wells of the 384 well plate (Echo; Labcyte), pure DMSO was then used to backfill the wells to insure all wells have the same amount of DMSO. A 12.5 μL volume of the HMT enzyme, H3K27me3 peptide and oligonucleosome substrate in assay buffer was added to each well of the assay plate using a Multidrop Combi (ThermoFisher). Compounds were pre-incubated with the enzyme for 20 min, followed by initiation of the methyltransferase reaction by addition of 12.5 μL of ^3H SAM in assay buffer (final volume=25 μL). The final concentrations of compounds ranged from a top default concentration of 80 μM down to 0.16 μM in ten 2-fold dilution steps. Reactions were carried out for 60 minutes and quenched with 20 μL per well of 1.96 mM SAH, 50 mM Tris pH 8.5, 200 mM EDTA. Stopped reactions were transferred to SAV coated Flashplates (Perkin Elmer), incubated for 120 min, washed with a plate washer, and then read on the TopCount NXT (1.0 min/well) to measure the amount of methyl histone product formed during the reaction. The amount of methyl histone product was compared with the amount of product formed in the 0% and 100% inhibition control wells allowing the calculation of % Inhibition in the presence of the individual compounds at various concentrations. IC50's were computed using a 4 parameter fit non-linear curve fitting software package (XLFIT, part of the database package, ActivityBase (IDBS)) where the four parameters were IC50, Hill slope, pre-transitional baseline (0% INH), and post-transitional baseline (100% INH); with the latter two parameters being fixed to zero and 100%, respectively, by default.

H3K27me3 mark = test: H3K27me3 Alpha Hela Assay (AlphaLISA); format: cell-based; settings: Hela cells, read-out: EZH2 Cell H3K27me3 Alpha HeLa (EC50 K27me3)
Description: EC50 Measurements for Inhibitors in HeLa Cell Assays
H3K27me3 Alpha Hela Assay (AlphaLISA). Ten different doses of each test compound (in a series of 3-fold dilutions) were plated in duplicate 384-well tissue culture treated plates (Catalog #781080; Greiner Bio One; Monroe, N.C.). Hela cells grown in culture were trypsinized and counted using a Countess® cell counter (Catalog # C10281; Life Technologies, Grand Island, N.Y.). Cell were diluted to 67,000 cells per mL in 10% DMEM (Catalog #10569-010 Life Technologies, Grand Island, N.Y.) and 15 μL (1,000 cells) were plated into each well using the Biotek MicroFlo™ Select Dispenser (BioTek Instruments, Inc. Vermont, USA),) of the 384-well plate. Plates were incubated at 37° C./5% CO2 for 72 hrs. One of the duplicate plates was processed for HeLa assay and the other for viability.
To the plate processed for AlphaLISA was added 5 μL per well Cell-Histone Lysis buffer (1×) (Catalog # AL009F1 Perkin Elmer; Waltham, Mass.) and the plate was incubated at RT for 30 minutes on a plate shaker with low speed (Model#4625-Q Thermo Scientific; Waltham, Mass.). Then, 10 μL per well Histone Extraction buffer (catalog # AL009F2; Perkin Elmer; Waltham, Mass.) was added and the plate further incubated at RT for 20 min on plate shaker with low speed. To each well was then added 10 μL per well of a 5× mix of anti-K27me3 acceptor beads plus Biotinylated anti-Histone H3 (C-ter) Antibody (diluted to 3 nM final) (Catalog #AL118 Perkin Elmer; Waltham, Mass.). Dilution of the acceptor beads and then anti-Histone H3 was with 1× Histone Detection buffer (Catalog # AL009F3 Perkin Elmer; Waltham, Mass.) which was produced diluted from the 10× stock provided. The plate was sealed with an aluminum plate sealer and incubated at 23° C. for 60 min. We then added 10 μL 5× solution of Streptavidin Donor beads (Catalog #6760002 Perkin Elmer; Waltham, Mass.) (20 μg/mL final in 1× Histone Detection Buffer), sealed the plate with Aluminum plate sealer and incubated at 23° C. for 30 min. The plates were then read using an EnVision-Alpha Reader (model #2104 Perkin Elmer; Waltham, Mass.).
Data from both assays was analyzed using Assay Assistant (Constellation Pharmaceuticals In-house product) and Activity Base (IDBS Ltd, Surrey, UK) template. Data files were imported to Assay Assistant and assay conditions were specified. A unique Analysis ID was created and the data files exported to Activity Base. An analysis template was created on Activity Base to measure dose-dependent inhibition of H3K27me3 mark and cell viability respectively. Readout of DMSO wells were used to normalize the data. Resulting curves were fitted using Activity base software Model 205 (IDBS Ltd, Surrey, UK). The data was checked for quality, validated and integrated in excel format using SARview (IDBS Ltd, Surrey, UK).

PRC2 containing wt EZH2 = target: T1, PRC2 containing wt EZH2 (Homo sapiens, UniProt Q15910); test: EZH2 pep BSA Brij 4.0 LowE (IC50): 3H-SAM incorporation into biotinylated H3 peptide; format: biochemical; settings: 20 pM PRC2 wt EZH2, 0.9 μM 3H-SAM, biotinylated H3 peptide substrate, 2 μM H3K27me3 activating peptide
T1 construct: made in house
Description: EZH2 Pep BSA Brij 4.0 LowE (IC50):
Compound potencies were assessed through incorporation of ^3H-SAM into a biotinylated H3 peptide. Specifically, PRC2 containing wt EZH2 (20 pM), (pentameric complexes prepared in-house) was pre-incubated with ^3H-SAM (0.9 μM), 2 μM H3K27me3 activating peptide (H2N-RKQLATKAAR(Kme3)SAPATGGVKKP-amide) and compounds (as 10 point duplicate dose response titrations in DMSO, final assay 0.8% DMSO (v/v)) for 120 min in 50 mM Tris (pH 8.5), 1 mM DTT, 0.07 mM Brij-35, 0.1% BSA, and 0.8% DMSO in a total volume of 12.5 μl. Reaction was initiated with biotinylated H3 substrate peptide (H2N-RKQLATKAAR(Kme1)SAPATGGVKKP-NTPEGBiot) as a 2 μM stock in 12.5 μl of buffer and allowed to react at room temperature for 5 h. Quenching was accomplished by addition of 20 μl of STOP solution (50 mM Tris (pH 8.5), 200 mM EDTA, 2 mM SAH). 35 μl of the quenched solution was transferred to Streptavidin Flashplates, incubated overnight, washed, and read in a TopCount Reader (Perkin Elmer). IC50s were calculated relative to fully active and no enzyme control wells using non-linear least square four parameter fits.

[1] = EZH2 pep BSA Brij 4.0 LowE (IC50)

Sequence of EZH2 (Q15910 whole entry): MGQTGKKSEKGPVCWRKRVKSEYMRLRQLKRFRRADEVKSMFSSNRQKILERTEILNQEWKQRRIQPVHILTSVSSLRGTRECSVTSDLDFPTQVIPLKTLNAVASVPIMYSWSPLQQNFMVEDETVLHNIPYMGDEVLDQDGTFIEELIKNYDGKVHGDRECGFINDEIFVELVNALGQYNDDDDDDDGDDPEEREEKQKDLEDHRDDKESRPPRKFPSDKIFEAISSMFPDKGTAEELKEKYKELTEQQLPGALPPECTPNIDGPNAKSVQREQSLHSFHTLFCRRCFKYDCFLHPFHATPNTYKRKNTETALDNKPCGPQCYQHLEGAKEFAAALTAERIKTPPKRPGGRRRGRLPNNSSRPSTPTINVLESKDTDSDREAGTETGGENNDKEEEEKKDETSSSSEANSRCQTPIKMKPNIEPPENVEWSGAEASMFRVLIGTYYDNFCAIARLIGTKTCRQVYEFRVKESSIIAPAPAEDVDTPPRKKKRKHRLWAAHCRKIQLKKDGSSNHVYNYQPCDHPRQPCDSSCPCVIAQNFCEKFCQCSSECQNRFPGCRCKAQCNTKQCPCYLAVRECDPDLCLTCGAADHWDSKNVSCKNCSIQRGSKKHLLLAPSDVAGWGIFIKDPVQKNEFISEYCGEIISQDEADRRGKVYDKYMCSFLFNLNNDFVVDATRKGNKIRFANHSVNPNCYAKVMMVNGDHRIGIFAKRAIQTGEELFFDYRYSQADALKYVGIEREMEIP
Sequence of EZH2 (O75530 whole entry partner): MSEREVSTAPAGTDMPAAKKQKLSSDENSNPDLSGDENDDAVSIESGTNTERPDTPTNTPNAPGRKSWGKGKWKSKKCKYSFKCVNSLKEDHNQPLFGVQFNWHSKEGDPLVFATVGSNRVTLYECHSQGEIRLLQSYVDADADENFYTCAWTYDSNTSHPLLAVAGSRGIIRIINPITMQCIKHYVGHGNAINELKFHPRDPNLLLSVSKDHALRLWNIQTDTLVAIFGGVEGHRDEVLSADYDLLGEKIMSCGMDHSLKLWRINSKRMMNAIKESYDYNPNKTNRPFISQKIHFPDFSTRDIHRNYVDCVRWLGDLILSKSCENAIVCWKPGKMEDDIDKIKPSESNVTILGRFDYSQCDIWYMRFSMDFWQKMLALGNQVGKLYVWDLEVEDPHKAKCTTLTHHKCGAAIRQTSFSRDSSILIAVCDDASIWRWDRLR
Sequence of EZH2 (Q15022 whole entry partner): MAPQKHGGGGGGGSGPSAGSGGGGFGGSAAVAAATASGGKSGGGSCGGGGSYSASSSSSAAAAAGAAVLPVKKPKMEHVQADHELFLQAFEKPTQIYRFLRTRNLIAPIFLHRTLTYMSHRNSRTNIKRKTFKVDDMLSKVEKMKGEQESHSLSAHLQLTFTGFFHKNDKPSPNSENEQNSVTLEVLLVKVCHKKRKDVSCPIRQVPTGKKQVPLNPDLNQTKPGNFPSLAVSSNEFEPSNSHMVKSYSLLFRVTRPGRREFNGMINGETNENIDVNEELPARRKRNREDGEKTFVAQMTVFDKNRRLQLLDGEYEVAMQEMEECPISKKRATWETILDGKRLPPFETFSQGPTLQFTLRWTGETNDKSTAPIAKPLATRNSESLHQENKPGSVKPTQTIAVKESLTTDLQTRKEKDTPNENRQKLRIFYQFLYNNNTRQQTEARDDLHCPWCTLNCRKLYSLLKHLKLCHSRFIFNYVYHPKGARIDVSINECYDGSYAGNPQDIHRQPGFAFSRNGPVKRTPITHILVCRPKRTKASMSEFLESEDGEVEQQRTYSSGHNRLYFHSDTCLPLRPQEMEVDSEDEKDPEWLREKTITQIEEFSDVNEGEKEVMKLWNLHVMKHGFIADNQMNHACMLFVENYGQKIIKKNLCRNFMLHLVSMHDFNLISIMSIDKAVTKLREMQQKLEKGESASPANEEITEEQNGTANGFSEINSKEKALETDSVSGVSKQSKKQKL
T1 sequence (Q15910 whole entry): as the sequence (Q15910 whole entry) above
T1 sequence (O75530 whole entry partner): as the sequence (O75530 whole entry partner) above
T1 sequence (Q15022 whole entry partner): as the sequence (Q15022 whole entry partner) above
T1 sequence (Q09028 whole entry partner): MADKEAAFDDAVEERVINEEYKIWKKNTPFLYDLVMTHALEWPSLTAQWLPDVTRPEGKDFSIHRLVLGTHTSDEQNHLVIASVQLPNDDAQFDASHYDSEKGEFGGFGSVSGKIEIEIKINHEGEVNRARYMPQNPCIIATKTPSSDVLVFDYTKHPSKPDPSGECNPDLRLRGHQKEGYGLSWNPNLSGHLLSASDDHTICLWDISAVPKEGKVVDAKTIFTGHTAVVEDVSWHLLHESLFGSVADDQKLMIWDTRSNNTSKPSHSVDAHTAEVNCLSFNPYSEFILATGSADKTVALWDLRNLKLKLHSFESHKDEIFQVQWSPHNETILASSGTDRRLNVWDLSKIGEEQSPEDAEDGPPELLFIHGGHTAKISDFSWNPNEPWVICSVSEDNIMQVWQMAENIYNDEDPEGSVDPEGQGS
T1 sequence (Q6ZN18 whole entry partner): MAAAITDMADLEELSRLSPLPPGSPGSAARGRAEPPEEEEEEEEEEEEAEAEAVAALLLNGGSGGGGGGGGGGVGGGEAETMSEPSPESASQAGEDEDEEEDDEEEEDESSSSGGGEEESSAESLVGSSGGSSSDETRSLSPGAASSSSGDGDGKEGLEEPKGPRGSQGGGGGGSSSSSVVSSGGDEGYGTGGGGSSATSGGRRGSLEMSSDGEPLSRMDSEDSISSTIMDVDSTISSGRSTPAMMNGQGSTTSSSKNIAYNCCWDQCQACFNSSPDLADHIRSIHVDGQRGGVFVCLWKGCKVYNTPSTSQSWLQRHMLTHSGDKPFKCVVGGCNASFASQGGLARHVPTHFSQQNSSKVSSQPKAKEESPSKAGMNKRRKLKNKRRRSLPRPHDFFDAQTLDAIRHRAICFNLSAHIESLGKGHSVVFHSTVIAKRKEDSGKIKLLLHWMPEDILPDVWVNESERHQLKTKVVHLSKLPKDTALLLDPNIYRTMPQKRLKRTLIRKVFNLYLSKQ

| SMILES | IC50 (EZH2; EZH2 nuc BSA Brij 1.5 (IC50)) | EC50 (H3K27me3 mark; 72 hrs) | also measured |
| --- | --- | --- | --- |
| COc1cc(C)[nH]c(=O)c1CNC(=O)c1c(C)n(C(C)C2CCNc3ccccc32)c2ccccc12 (single isomer, unassigned) [Compound 1] | < 100 nM |  | EC50 (H3K27me3 mark; Homo sapiens, HeLa, 72 h): > 2000 nM |
| CCN1CCC(C(C)n2c(C)c(C(=O)NCc3c(OC)cc(C)[nH]c3=O)c3ccccc32)CC1C(F)(F)F (single isomer, unassigned) [Compound 9, 1-(1-(1-ethyl-2-(trifluoromethyl)piperidin-4-yl)ethyl)-N-((4-methoxy-6-methyl-2-oxo-1,2-dihydropyridin-3-yl)methyl)-2-methyl-1H-indole-3-carboxamide] | < 100 nM | > 2000 nM |  |
| CCN1CCC(C(C)n2c(C)c(C(=O)NCc3c(OC)cc(C)[nH]c3=O)c3ccccc32)CC1C(F)(F)F (single isomer, unassigned) [Compound 10, 1-(1-(1-ethyl-2-(trifluoromethyl)piperidin-4-yl)ethyl)-N-((4-methoxy-6-methyl-2-oxo-1,2-dihydropyridin-3-yl)methyl)-2-methyl-1H-indole-3-carboxamide] |  | < 400 nM | IC50 (EZH2; read-out: EZH2 nuc BSA Brij 1.5 (IC50)): < 100 nM |
| COc1cc(C)[nH]c(=O)c1CNC(=O)c1c(C)n(C(C)C2CCNC(C(F)(F)F)C2)c2ccccc12 (single isomer, unassigned) [Compound 12, N-((4-methoxy-6-methyl-2-oxo-1,2-dihydropyridin-3-yl)methyl)-2-methyl-1-(1-(2-(trifluoromethyl)piperidin-4-yl)ethyl)-1H-indole-3-carboxamide] | < 100 nM |  |  |
| COc1cc(C)[nH]c(=O)c1CNC(=O)c1c(C)n(C(C)C2CCN(C)C(C(F)(F)F)C2)c2ccccc12 (single isomer, unassigned) [Compound 13, N-((4-methoxy-6-methyl-2-oxo-1,2-dihydropyridin-3-yl)methyl)-2-methyl-1-(1-(1-methyl-2-(trifluoromethyl)piperidin-4-yl)ethyl)-1H-indole-3-carboxamide] | < 100 nM |  | EC50 (H3K27me3 mark; Homo sapiens, HeLa, 72 h): 400 to 2000 nM |
| Cc1cc(C)c(CNC(=O)c2c(C)n(C(C)C3CCNC(C(F)(F)F)C3)c3ccccc23)c(=O)[nH]1 (single isomer, unassigned) [Compound 16, N-((4,6-dimethyl-2-oxo-1,2-dihydropyridin-3-yl)methyl)-2-methyl-1-(1-(2-(trifluoromethyl)piperidin-4-yl)ethyl)-1H-indole-3-carboxamide] | < 100 nM |  |  |
| COc1cc(C)[nH]c(=O)c1CNC(=O)c1c(C)n(C(C)C2CCNC(C(F)(F)F)C2)c2ccccc12 (single isomer, unassigned) [Compound 20, N-((4-methoxy-6-methyl-2-oxo-1,2-dihydropyridin-3-yl)methyl)-2-methyl-1-(1-(2-(trifluoromethyl)piperidin-4-yl)ethyl)-1H-indole-3-carboxamide] | < 100 nM | 400 to 2000 nM |  |
| COc1cc(C)[nH]c(=O)c1CNC(=O)c1c(C)n(C(C)C2CCNC(C(F)(F)F)C2)c2ccccc12 (single isomer, unassigned) [Compound 22, N-((4-methoxy-6-methyl-2-oxo-1,2-dihydropyridin-3-yl)methyl)-2-methyl-1-(1-(2-(trifluoromethyl)piperidin-4-yl)ethyl)-1H-indole-3-carboxamide] | < 100 nM | 400 to 2000 nM |  |
| COc1cc(C)[nH]c(=O)c1CNC(=O)c1c(C)n(C(C)C2CCNC(C(F)(F)F)C2)c2ccccc12 (single isomer, unassigned) [Compound 23, N-((4-methoxy-6-methyl-2-oxo-1,2-dihydropyridin-3-yl)methyl)-2-methyl-1-(1-(2-(trifluoromethyl)piperidin-4-yl)ethyl)-1H-indole-3-carboxamide] | 100 to 1000 nM | > 2000 nM |  |
| COc1cc(C)[nH]c(=O)c1CNC(=O)c1c(C)n(C(C)C2CCN(C)c3ccccc32)c2ccccc12 (centres unmarked) [Compound 3, N-((4-methoxy-6-methyl-2-oxo-1,2-dihydropyridin-3-yl)methyl)-2-methyl-1-(1-(1-methyl-1,2,3,4-tetrahydroquinolin-4-yl)ethyl)-1H-indole-3-carboxamide] | < 100 nM |  |  |
| COc1cc(C)[nH]c(=O)c1CNC(=O)c1c(C)n(C(C)C2CCN(C)C(c3cccc(C#N)c3)C2)c2ccccc12 (centres unmarked) [Compound 95] |  |  | EC50 (H3K27me3 mark; Homo sapiens, HeLa, 72 h): 400 to 2000 nM; IC50 (PRC2 containing wt EZH2; [1]): < 100 nM |
| COc1cc(C)[nH]c(=O)c1CNC(=O)c1c(C)n(C(C)C2CCN(C)C(c3cccc(C#N)c3)C2)c2ccccc12 (centres unmarked) [Compound 96] |  | 400 to 2000 nM | IC50 (PRC2 containing wt EZH2; read-out: EZH2 pep BSA Brij 4.0 LowE (IC50)): < 100 nM |
| COc1cc(C)[nH]c(=O)c1CNC(=O)c1c(C)n(C(C)C2CCN(C)C(c3cccc(C(=O)O)c3)C2)c2ccccc12 (centres unmarked) [Compound 97] |  | > 2000 nM | IC50 (PRC2 containing wt EZH2; [1]): < 100 nM |
